The term IC50 denotes the concentration at which inhibition is half-maximal. Low values mean inhibition by little substance, high ones a need for much substance. The term Papp A→B denotes the apparent permeability from the apical to the basolateral side of a cell layer. For orientation: efflux ratio means a quotient of directional permeabilities that is used to spot active efflux.

Data on eight molecules can be found in ChEMBL document CHEMBL6074683, “Design, synthesis and investigation of biological activity and mechanism of fluoroaryl-substituted derivatives at the FL118 position 7” (Eur J Med Chem, 2025).

Data set [1] concerns HCT-116. As to the kind of experiment: Cytotoxicity against human HCT-116 cells incubated for 72 hrs by MTT assay. It counts as functional, cell-based. As to conditions: HCT-116, 72 h. (In general: Formazan colour is commonly taken as a measure of viable cells.)
In data set [2] the test system is HepG2. Briefly: Cytotoxicity against human HepG2 cells incubated for 72 hrs by MTT assay. Type of data set: functional, cell-based. The following applies: HepG2, 72 h.
Data set [3] deals with A549. Briefly: Cytotoxicity against human A549 cells incubated for 72 hrs by MTT assay. Type of data set: functional, cell-based. As to conditions: A549, 72 h.
Data set [4] has as its system HCT-116. Briefly: Downregulation of DDX5 protein expression in human HCT-116 cells at 100 nM incubated upto 72 hrs by Western blotting assay. Type of data set: functional, cell-based. On the technique in general: Immunoblotting shows a protein as a band on a membrane.
The subject of data set [5] is HeLa. As to the kind of experiment: Cytotoxicity against human HeLa cells incubated for 72 hrs by MTT assay. It counts as functional, cell-based.
Data set [6] is described as follows: Apparent permeability across apical to basolateral side in human Caco-2 cells measured upto 120 mins by LC-MS/MS method. It counts as ADME, cell-based.
The nature of data set [7]: Efflux ratio of apparent permeability across basolateral to apical over apical to basolateral side in human Caco-2 cells. It counts as ADME, cell-based.

Active and inactive are the calls of the source. No cut-off for these calls is given here.

With `CCc1c2c(nc3ccc(O)cc13)-c1cc3c(c(=O)n1C2)COC(=O)[C@]3(O)CC` [7-ETHYL-10-HYDROXYCAMPTOTHECIN], the IC50 stood at 367 nM in data set [1], 268 nM in data set [2], 475 nM in data set [3] and 234 nM in data set [5]. Further, the outcome in data set [4] was inactive.

`CC[C@@]1(O)C(=O)OCc2c1cc1n(c2=O)Cc2c-1nc1cc3c(cc1c2-c1cc(C)cc(F)c1)OCO3`: the 50% inhibitory concentration (IC50) in data set [1] turned out to be 41.4 nM; in data set [2], 56 nM; in data set [3], 30.6 nM; in data set [5], 56.5 nM.

`CC[C@@]1(O)C(=O)OCc2c1cc1n(c2=O)Cc2c-1nc1cc3c(cc1c2-c1cccc(C(F)(F)F)c1)OCO3`: the half-maximal inhibitory concentration (IC50) turned out to be 73.6 nM in data set [1], 35 nM in data set [2], 82.9 nM in data set [3] and 20.2 nM in data set [5].

With `CC[C@@]1(O)C(=O)OCc2c1cc1n(c2=O)Cc2c-1nc1cc3c(cc1c2-c1ccc(C)c(F)c1)OCO3`, the half-maximal inhibitory concentration (IC50) in data set [1] was 50.3 nM; in data set [2] it was 36.9 nM; in data set [3], 48.2 nM; in data set [5], 22.1 nM.

For `CC[C@@]1(O)C(=O)OCc2c1cc1n(c2=O)Cc2c-1nc1cc3c(cc1c2-c1ccc(OC)c(F)c1)OCO3`, the IC50 in data set [1] was 43.2 nM; in data set [2], 172 nM; in data set [3] it was 70.2 nM; in data set [5] it was 24.3 nM.

In the case of `CC[C@@]1(O)C(=O)OCc2c1cc1n(c2=O)Cc2c-1nc1cc3c(cc1c2-c1ccc(F)c(F)c1)OCO3`, the IC50 in data set [1] was 48.8 nM; in data set [2], 49.9 nM; in data set [3], 9 nM; in data set [5], 39.7 nM.

Consider `CC[C@@]1(O)C(=O)OCc2c1cc1n(c2=O)Cc2cc3cc4c(cc3nc2-1)OCO4`, for which the Papp A→B at 2 h in data set [6] turned out to be 6.97 ×10⁻⁶ cm/s. Also, the half-maximal inhibitory concentration (IC50) came out at 66.5 nM in data set [1], 68.5 nM in data set [2], 81.8 nM in data set [3] and 34.7 nM in data set [5]. Also, the efflux ratio in data set [7] was determined as 1.2.

Consider `CC[C@@]1(O)C(=O)OCc2c1cc1n(c2=O)Cc2c-1nc1cc3c(cc1c2-c1ccc(OC(F)(F)F)cc1)OCO3`, for which the IC50 came out at 196 nM in data set [1], 229 nM in data set [2], 87.3 nM in data set [3] and 398 nM in data set [5].
